# In patent US20140295012A1, “LATENT HUMAN IMMUNODEFICIENCY VIRUS REACTIVATION” (priority 2011, published 2014):
# Where two headings read alike, the source gives them in different places. Where a SMILES comes first, the peptide text is derived from it. The star is where a group is joined. Cbz = O=C(OCc1ccccc1)*
# Assays:
# Assay type in all cases: cell-based
# [1] = test system: latently HIV-1 infected CA5 T cells; conditions: for priming effect on HIV-1 reactivation by sub-optimal dose of HRF: CA5 cells pretreated with increasing concentrations; for effect of higher concentrations on HIV-1 reactivation triggered by HRF or TNF-α: correlated with high levels of cytotoxicity
# Procedure: (§1) Infection levels in the cell cultures were monitored by flow cytometric analysis of EGFP expression. Flow cytometric analysis was performed on a GUAVA EasyCyte (Millipore; Billerica, Mass.), or a LSRII (Becton & Dickinson; Franklin Lakes, N.J.).
# Bacterial growth. Bacteria from various sources were isolated on TSA II agar plates containing 5% sheep blood. Bacterial isolates were then grown in RPMI 1640 medium supplemented with 10% FBS. After two days of incubation at 37° C. bacteria were pelleted and resuspended in RPMI medium to an optical density (OD600) of 8, aliquoted and frozen at −80° C. Unless otherwise indicated, Massilia timonae was grown in RPMI 1640 medium supplemented with 10% FBS. Typically, medium was inoculated with Massilia timonae from frozen stocks to an OD600 of 0.01. After 48 hours at 37° C., the culture was centrifuged at 3200 g to separate bacteria from the culture medium. Bacteria were resuspended in fresh medium to an OD600 of 8 and frozen to be used as references and stock cultures. The supernatant was then centrifuged at 10,000 g for 20 minutes and sterilized by passage through a 0.2 μm PVDF filter with low protein binding ability. HRF activity was determined by its ability to reactivate latent HIV-1 infection in CA5 cells. Only supernatants of which 6 μl reactivated infection in at least 60% of CA5 cells were used to study HRF properties.
# Flow cytometry. Infection levels in the cell cultures were monitored by flow cytometric (FCM) analysis of GFP expression. FCM analysis was performed on a GUAVA EasyCyte (GUAVA Technologies, Inc.; Millipore; Billerica, Mass.) and a BD FACSCalibur or a LSRII (Becton & Dickinson; Franklin Lakes, N.J.). Cell sorting experiments were performed using a FACSAria™ Flow Cytometer (Becton&Dickinson). Data analysis was performed using either CellQuest (Becton&Dickinson) or GUAVA Express (GUAVA Technologies, Inc.).
# To identify the optimal concentration of dactinomycin, CA5 T cells were pretreated with increasing concentrations of dactinomycin (0.0001 and 1 μg/ml), and then left untreated or stimulated with a sub-optimal concentration of HRF or TNF-α. Representative results for stimulation with HRF are depicted in FIG. 3. The chosen HRF concentration has only minimal HIV-1 reactivating effect by itself (15% reactivation over background). Twenty four hours after activator addition, levels of HIV-1 reactivation were determined as the percentage of GFP-positive cells using flow cytometric analysis, which allowed for the simultaneous determination of cell viability. […] Optimal pretreatment time was 18 hours. Maximum reactivation effects were seen 48 hours after stimulation.
# [2] = test system: latently HIV-1 infected CA5 T cells
# [3] = test system: latently HIV-1 infected J89GFP T cells; assay: HIV-1 reactivation / priming in latently HIV-1 infected J89GFP T cells (GFP, flow cytometry, HTS); conditions: 10 ng/ml PMA; three J89GFP populations
# Procedure: Flow cytometry. Infection levels in the cell cultures were monitored by flow cytometric (FCM) analysis of GFP expression. […] Cell sorting experiments were performed using a FACSAria™ Flow Cytometer (Becton&Dickinson). Data analysis was performed using either CellQuest (Becton&Dickinson) or GUAVA Express (GUAVA Technologies, Inc.).
# HIV-1 LTR = assay: Tat-independent activation of integrated LTR-GFP construct in NOMI reporter T cells; conditions: 24 hours
# Procedure: (§2) FIGS. 6A-6C show HRF triggers suboptimal functional induction of NF-κB dependent gene expression. […] The HIV-1 reactivating kinetics were determined by stimulating CA5 T cells with optimal concentrations of HRF, phorbol 12-myristate 13-acetate (PMA) and tumor necrosis factor-α (TNF-α) and analyzing HIV-1 reactivation as a function of EGFP-expression over a period of 48 hours. Data for all agents are depicted as the percentage of EGFP-positive cells in the total cell population. […] To test the ability of HRF to mediate Tat-independent activation of the HIV-1 LTR, NOMI cells (HIV-1 reporter cell line with an integrated LTR-EGFP construct) were stimulated with increasing concentrations of PMA (0.01-10 ng/ml), TNF-α (0.003-30 μg/ml) and HRF supernatant (0.3-100 μl). The level of LTR-induction was then measured as EGFP-expression detectable after 24 hours as determined by flow cytometric analysis. Arrows indicate the concentrations at which the respective stimulus would have triggered full HIV-1 reactivation in the latently HIV-1 infected CA5 T cell line. […] 293T cells were transfected with several NF-κB dependent promoter constructs and then stimulated with either TNF-α (10 μg/ml) or HRF (25 μl). Promoter induction was measured as total EGFP expression. (NF-κB:pNF-κB-d2EGFP; LTR:HIV-1 LTR-GFP; IL-8:pIL-8 GFP; TNF:human TNF-GFP; MSCV:murine stem cell virus LTR driven GFP; no NF-κB responsive elements).
# As the NF-κB pathway has been recognized as vital to HIV-1 activation, the ability of HRF to trigger NF-κB activation was investigated. It was initially determined that HRF had the ability to stimulate Tat independent activation of an integrated LTR-GFP construct in NOMI reporter T cells.
# [4] = test system: chronically actively infected T cell lines (JNLG#35 and JNLG#44); assay: Active HIV-1 transcription in chronically actively infected T cell lines JNLG#35 and JNLG#44 (GFP MCF); conditions: 48 hours
# Procedure: Changes in HIV-1 transcription levels were determined after 48 hours by measuring GFP mean channel fluorescence intensity (GFP MCF). GFP MCF was plotted over the drug concentration for dactinomycin (FIG. 12A), the DNA intercalators daunorubicin (DM) (FIG. 12B) and rebeccamycin (RM) (FIG. 12C), as well as the transcription inhibitors ICRF-193 (FIG. 12D), DRB (FIG. 12E) and α-amanitin (FIG. 12F). The size of symbols indicates the respective cell viability in the sample (size range adjusted to 5-95%).
# For this purpose, each of the compounds was titrated over a relevant range of concentrations on two chronically actively infected T cell lines (JNLG#35 and JNLG#44). These clonal cell lines are infected with a GFP-reporter virus. Forty eight hours after addition of the compounds, the effect of each compound on HIV-1 transcription was determined by flow cytometric analysis quantifying GFP mean channel fluorescence intensity (MCF).
# [5] = test system: NF-κB dependent promoters in 293T cells; assay: NF-κB dependent promoter constructs transfected into 293T cells (EGFP expression)
# Procedure: as §2
# The utilized EGFP reporter virus HIV-1 NLENG1-IRES has been described elsewhere (Kutsch et al., J. Virol. 76:8776-86 (2002); Levy et al., Proc. Natl. Acad. Sci. USA 101:4204-9 (2004)). The reporter plasmid pNF-κB-d2EGFP was purchased from Clontech (Mountain View, Calif.). The LTR-GFP construct and the IL-8 reporter construct have been described earlier (Choi et al., Mol. Cell. Biol. 22:724-36 (2002)). The TNF-promoter construct was generated by cloning the human TNF-α promoter element defined by primer pair 5′-BglII; 5′-[…] […]-3′ (SEQ ID NO:2) and 3′-AgeI; 5′-[…] […]-3′ (SEQ ID NO:3) into pd2EGFP (Clontech). MSCV-GFP was generated by cloning the EGFP-gene into retroviral pMSCV-puro vector (Clontech).
# [6] = test system: latently HIV-1 infected reporter T cell lines; conditions: four latently infected reporter T cell lines; culture supernatant
# Procedure: FIGS. 1A and 1B show culture supernatants from Massilia timonae reactivate latent HIV-1 infection. […] Untreated control cells and HRF-treated cells were subjected to flow cytometric analysis to determine enhanced green fluorescent protein (EGFP) expression as a direct and quantitative marker of HIV-1 expression 24 hours post stimulation. FSC/SSC dot plots are represented to evaluate cell viability as a function of changes in the FSC (cell size)-SSC (granularity) phenotype of the cells. FIG. 1B is a histogram showing the reproducibility of the observed HIV-1 reactivation. Three independent preparations of HRF (batches HRF1-3) on four different latently infected T cell lines (5F3, 8E12, CA5 and 12D4) were tested. The percentage of EGFP positive cells following stimulation is depicted in the histogram. Cell culture supernatants of Pseudomonas aeruginosa cultures, grown under similar conditions, were used as specificity controls.
# as §1
# [7] = test system: latently HIV-1 infected monocytic THP89GFP cells; assay: HIV-1 reactivation in latently infected monocytic THP89GFP cells
molecule,measurement,setting,value
CC[C@H](C)[C@@H]1NC(=O)CNC(=O)[C@@H]2Cc3c([nH]c4cc(O)ccc34)[S+]([O-])C[C@@H](NC(=O)CNC1=O)C(=O)N[C@@H](CC(N)=O)C(=O)N1C[C@H](O)C[C@H]1C(=O)N[C@@H]([C@@H](C)[C@@H](O)CO)C(=O)N2 (stereo in doubt) [α-amanitin],priming effect on HIV-1 reactivation by sub-optimal dose of HRF,[1],None of the inhibitors exerted a priming effect
same,priming effect on HIV-1 reactivation by sub-optimal dose of HRF,[1]; listed as α-aminitin,did not exhibit any priming effect
same,effect of higher concentrations on HIV-1 reactivation triggered by HRF or TNF-α,[1],inhibit HIV-1 reactivation
"OC[C@H]1O[C@@H](n2cnc3cc(Cl)c(Cl)cc32)[C@H](O)[C@@H]1O [DRB, 5,6 dichloro-beta-D-ribofuranosylbenzimidazole]",effect of higher concentrations on HIV-1 reactivation triggered by HRF or TNF-α,[1],inhibit HIV-1 reactivation
"CC(=O)NCCCCCCNC(C)=O [HMBA, Hexamethylene bisacetamide]",HIV-1 reactivation (cells),[2]; 3 mM,15%
same,HIV-1 reactivation (cells),[2]; 9 mM,35%
same,compound toxicity,[2]; 9 mM,onset of compound toxicity
same,HIV-1 reactivation levels,"[2]; HMBA alone, overall",< 40%
same,reactivation,[2]; combination of HMBA and TNF-α,81%
same,reactivation,[2]; optimal dose of HMBA alone,27%
same,priming for full reactivation by sub-optimal TNF-α,[2]; sub-toxic concentrations,relatively potent at priming latent HIV-1 infection
same,optimal concentration as HIV-1 priming agent prior to onset of drug mediated toxicities,[1],3 to 10 mM
CC(C)C[C@@H](C=O)NC(=O)[C@H](CC(C)C)NC(=O)[C@H](CC(C)C)NC(=O)OCc1ccccc1 [MG132] (Cbz-Leu-Leu-Leu-aldehyde),priming effect on HIV-1 reactivation by sub-optimal dose of HRF,[1],did not exhibit any priming effect
"CCCCCCCCCCCCCC(=O)O[C@@H]1[C@@H](C)[C@@]2(O)[C@@H](C=C(CO)C[C@]3(O)C(=O)C(C)=C[C@@H]23)[C@@H]2C(C)(C)[C@]12OC(C)=O [PMA, phorbol 12-myristate 13-acetate]",Maximum achievable HIV-1 reactivation levels,[3],90±3%
same,Tat-independent activation of integrated LTR-GFP construct (GFP expression),HIV-1 LTR,stimulated Tat-independent activation
C=C(c1ccc(C(=O)O)cc1)c1cc2c(cc1C)C(C)(C)CCC2(C)C [bexarotene],effect with bryostatin on latent HIV-1 infection,"[2]; bexarotene overnight pretreatment, CA5 T cells",synergistic effect
same,priming of latent HIV-1 infection for reactivation by a second stimulus,[2]; pretreatment 2 hours or overnight,primed latent HIV-1 infection for reactivation by a second stimulus in a synergistic manner
CC[C@@]1(O)C(=O)OCc2c1cc1n(c2=O)Cc2cc3ccccc3nc2-1 [camptothecin],priming effect on HIV-1 reactivation by sub-optimal dose of HRF,[1],None of the inhibitors exerted a priming effect
COc1cccc2c1C(=O)c1c(O)c3c(c(O)c1C2=O)C[C@@](O)(C(C)=O)C[C@@H]3O[C@H]1C[C@H](N)[C@H](O)[C@H](C)O1 [daunorubicin],priming effect on HIV-1 reactivation by sub-optimal dose of HRF,[1],not reproduced
same,priming effect on HIV-1 reactivation by sub-optimal dose of HRF,[1]; listed as Dauno,did not exhibit any priming effect
same,effect on active HIV-1 infection / transcription (GFP MCF),[4],boosted active HIV-1 transcription
O=C1[O][Pt]2([NH][C@@H]3CCCC[C@H]3[NH]2)[O]C1=O [oxaliplatin],priming effect on HIV-1 reactivation by sub-optimal dose of HRF,[1],not reproduced
CC(=O)O[C@@]12C[C@@H](C)[C@@]3(O)[C@@H](C=C(CO)C[C@]4(O)C(=O)C(C)=C[C@@H]34)[C@@H]1C2(C)C [prostratin],interaction with bexarotene,[2],interact with bexarotene to reactivate latent HIV-1 infection
CO[C@H]1[C@H](O)[C@@H](O)[C@H](n2c3c(Cl)cccc3c3c4c(c5c6cccc(Cl)c6[nH]c5c32)C(=O)NC4=O)O[C@@H]1CO [rebeccamycin],priming effect on HIV-1 reactivation by sub-optimal dose of HRF,[1],not reproduced
same,effect on active HIV-1 infection / transcription (GFP MCF),[4],boosted active HIV-1 transcription
TNF-α,Tat-independent activation of integrated LTR-GFP construct (GFP expression),HIV-1 LTR,stimulated Tat-independent activation
same,"GFP expression driven by NF-κB responsive promoter constructs (IL-8, TNF-α, HIV-1 LTR, three consensus NF-κB sites)",[5],efficiently induced
same,GFP expression of construct under control of murine stem cell virus LTR (no NF-κB responsive element),[5],Neither TNF-α nor HRF influenced GFP expression
same,reactivation,[1]; sub-optimal dose of TNF-α alone,32%
lipopolysaccharide,HIV-1 reactivation,[6],only reactivated HIV-1 infection in the latently HIV-1 infected monocytic THP89GFP cells
same,HIV-1 reactivation,[7],reactivated HIV-1 infection
